Laboratory results from paper PMC8190080, “Tanshinones induce tumor cell apoptosis via directly targeting FHIT” (Scientific Reports, 2021).

Columns and labels:
FHIT truncation TR3 = target: T1, FHIT truncation TR3 (Homo sapiens, UniProt P49789); assay: Cellular MST assay, GFP tagged FHIT truncation TR3 (C-terminal only); type: binding
T1 construct: expressed in transfected cells; host or cells: HEK293T / 293 cells (inferred from the cellular MST method)
Protocol: Ten million 293 cells overexpressing GFP-tagged FHIT or free GFP were lysed in 0.5 mL M-PER mammalian protein extraction reagent (Thermo Fisher Scientific). Cell lysates were diluted in PBS buffer to a final concentration at which the fluorescent signals of the GFP proteins were suitable for the detection of the Monolith NT.115 instrument (NanoTemper Technologies). A single point screening assay was developed against GFP-FHIT protein to find potential binding molecules from compound libraries (L1021,APExBIO). For binding affinity detection, a 10µL protein sample was mixed with 10µL ligand at various concentrations as indicated. And the purified proteins were labeled by Red- NHS kit in accordance with the manufacturer’s protocol (MO-L011, NanoTemper Technologies). Then the mixture solutions were loaded into NT.115 standard coated capillaries or premium coated capillaries (NanoTemper Technologies), and the MST measurements were performed at 25 °C. The fluorescence signal during the thermophoresis was monitored and the change in fluorescence was analyzed by software. The Kd was calculated by fitting a standard binding curve to the series diluted ligands. And data were analyzed by GraphPad Prism 7.0.

GALT = target: T2, GALT (Homo sapiens, UniProt P07902); assay: MST assay, purified GALT; type: binding
T2 construct: 6xHis (N); made in house; host or cells: E. coli BL21(DE3)

ENPP1 [1] = target: T3, ENPP1 (Homo sapiens, UniProt P22413); assay: MST assay, ENPP1; type: binding
T3 sequence (P22413 1-925): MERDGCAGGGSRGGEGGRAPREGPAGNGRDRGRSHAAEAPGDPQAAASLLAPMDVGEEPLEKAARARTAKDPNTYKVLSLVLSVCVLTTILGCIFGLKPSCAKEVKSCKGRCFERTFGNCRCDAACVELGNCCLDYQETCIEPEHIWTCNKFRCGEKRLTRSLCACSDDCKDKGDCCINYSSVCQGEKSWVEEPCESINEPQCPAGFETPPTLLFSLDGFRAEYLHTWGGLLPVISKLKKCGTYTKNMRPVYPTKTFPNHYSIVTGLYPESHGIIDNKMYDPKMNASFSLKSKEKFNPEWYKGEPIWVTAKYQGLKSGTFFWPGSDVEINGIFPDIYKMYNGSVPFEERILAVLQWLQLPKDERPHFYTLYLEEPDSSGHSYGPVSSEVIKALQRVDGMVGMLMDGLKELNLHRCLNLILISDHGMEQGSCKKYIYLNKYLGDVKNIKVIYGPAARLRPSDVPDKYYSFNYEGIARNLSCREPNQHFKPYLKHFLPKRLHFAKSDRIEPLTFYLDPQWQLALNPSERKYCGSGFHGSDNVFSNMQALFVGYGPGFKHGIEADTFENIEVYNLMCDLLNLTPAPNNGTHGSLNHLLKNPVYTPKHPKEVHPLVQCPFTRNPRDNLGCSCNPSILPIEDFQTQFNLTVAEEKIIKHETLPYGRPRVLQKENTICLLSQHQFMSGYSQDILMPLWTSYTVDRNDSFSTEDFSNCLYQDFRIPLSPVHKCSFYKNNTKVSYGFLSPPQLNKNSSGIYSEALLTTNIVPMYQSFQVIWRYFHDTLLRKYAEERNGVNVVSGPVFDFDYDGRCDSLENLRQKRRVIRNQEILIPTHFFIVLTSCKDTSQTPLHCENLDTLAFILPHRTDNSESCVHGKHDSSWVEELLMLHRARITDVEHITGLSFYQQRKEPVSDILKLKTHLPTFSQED

HINT1 = target: T4, HINT1 (Homo sapiens, UniProt P49773); assay: MST assay, purified HINT1; type: binding
T4 construct: 6xHis (N); made in house; host or cells: E. coli BL21(DE3)

FHIT = target: T5, FHIT (Homo sapiens, UniProt P49789); assay: FHIT hydrolase activity detection assay (Ap3A, ADP-Glo); type: biochemical; conditions: 5 nM FHIT, 500 nM Ap3A, ADP production by ADP-Glo
T5 construct: GST (N, cleaved yes); made in house; host or cells: E. coli BL21 (DE3)
Protocol: 5 nM FHIT protein was mixed with series diluted compounds as indicated in assay buffer (20 mM Tris–HCl, 2 mM DTT, 5 mM MgCl2, pH7.5) in a final DMSO concentration of 1% in a total volume of 20 μL. The mixtures were incubated for 30 min at 25 °C, then 500 nM Ap3A was added. After incubation at 25 °C for 5 min, the production of ADP in the reaction system was detected by ADP-Glo reagent (V6930, Promega) according to the manufacturer’s protocol in 384-well. Luminescence was read by spark (TECAN), an integration time of 1 s per well. And the data were analyzed by GraphPad Prism 7.0.

ENPP1 [2] = target: T3, ENPP1; assay: ENPP1 hydrolase activity detection assay (Ap3A, ADP-Glo); type: biochemical; conditions: ENPP1 4 ng/µl, 4 µM Ap3A
Protocol: ENPP1 protein (4ng/µl) was mixed with series diluted compounds as indicated in assay buffer (50mM Tris-HCl, 2mM CaCl2, 2mM MgCl2, pH9.0) in a final DMSO concentration of 1% in a total volume of 20μL. The mixtures were incubated for 30min at 25°C, then 4µM Ap3A was added. After incubation at 25°C for 10min, ENPP1 should be inactivated at 85°C for 5min.
Then the production of ADP in the reaction system was detected by ADP-Glo reagent (V6930, Promega) according to the manufacturer’s protocol in 384-well. Luminescence was read by spark (TECAN), an integration time of 1 second per well. And the data were analyzed by

HCT116 cells = assay: CCK-8 assay for cell inhibitory rate; type: cell-based, human; conditions: WT HCT116 cells, concentration as high as 100 µM
Protocol: The CCK-8 (Cell-Counting Kit-8) assay was used to detect the cells’inhibitory rate following the manufacturer’s protocol (APExBIO). Cells were seeded into 96-well plates at the density of 4 × 10^3(cells/well) overnight at 37 °C. After that, the culture medium was removed and the cells were treated with different concentrations of TSA (0, 1, 2, 5, 10 µM) or STS (0, 10, 25, 50, 100 µM) for 24 h, 48 h, 72 h respectively. Then 10 μL CCK-8 reagent was added into each well and incubated for another 2 h, OD450 was measured by a microplate reader (spark, TECAN).

T1 sequence (P49789 109-147 limits assumed): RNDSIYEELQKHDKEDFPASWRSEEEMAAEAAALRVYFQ
T2 sequence (P07902 whole entry): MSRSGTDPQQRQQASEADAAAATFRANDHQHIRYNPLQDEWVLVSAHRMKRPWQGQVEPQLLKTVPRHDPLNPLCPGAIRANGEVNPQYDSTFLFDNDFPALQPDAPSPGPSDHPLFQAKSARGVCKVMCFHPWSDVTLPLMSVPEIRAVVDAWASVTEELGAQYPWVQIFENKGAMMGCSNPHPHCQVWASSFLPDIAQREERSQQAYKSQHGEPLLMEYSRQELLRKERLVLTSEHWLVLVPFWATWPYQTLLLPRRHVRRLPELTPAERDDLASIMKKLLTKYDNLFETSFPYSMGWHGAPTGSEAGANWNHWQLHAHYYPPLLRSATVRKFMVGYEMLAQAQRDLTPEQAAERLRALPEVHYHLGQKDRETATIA
T4 sequence (P49773 whole entry): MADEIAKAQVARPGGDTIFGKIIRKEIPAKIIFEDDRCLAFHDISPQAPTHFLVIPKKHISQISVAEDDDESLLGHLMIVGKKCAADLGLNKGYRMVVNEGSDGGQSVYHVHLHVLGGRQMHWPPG
T5 sequence (P49789 whole entry): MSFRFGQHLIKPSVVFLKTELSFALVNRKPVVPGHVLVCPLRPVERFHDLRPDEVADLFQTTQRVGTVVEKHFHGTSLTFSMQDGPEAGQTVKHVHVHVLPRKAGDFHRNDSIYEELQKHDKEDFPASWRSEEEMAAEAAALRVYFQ

Kd (FHIT truncation TR3): No Kd value was calculated | Kd (GALT): 12.9 ± 0.54 µM | Kd (ENPP1 [1]): 27.2 ± 1.96 µM | direct binding (MST binding curve) (HINT1): no direct binding curve was observed | IC50 (FHIT): 0.34 ± 0.09 µM | IC50 (ENPP1 [2]): 57.9 ± 15.1 µM
SMILES: Cc1c(S(=O)(=O)O)oc2c1C(=O)C(=O)c1c-2ccc2c1CCCC2(C)C [STS, Sodium tanshinone IIA sulfonate]
cytotoxicity (CCK8) (HCT116 cells): no cytotoxicity
